Where a SMILES comes first, the peptide text is derived from it. The star is where a group is joined. Succinyl(4-O-cholesteryl) = CC(C)CCC[C@@H](C)[C@H]1CC[C@H]2[C@@H]3CC=C4C[C@@H](OC(=O)CCC(=O)*)CC[C@]4(C)[C@H]3CC[C@]12C
How the values were obtained:
RSV A long virus strain = assay type: cell-based; settings: RSV A long virus strain, HEp-2 cells, plaque reduction, 1 day; read-out: IC50
Procedure, shortened: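 Plaque reduction in HEp-2 cells: virus (100 PFU/well) and serially diluted compound (8 concentrations) mixed 1 h, adsorbed 2 h, then overlaid with 0.8% CMC medium plus compound for 1 day at 37 °C. Spots counted after anti-RSV immunostaining; IC50 from normalized inhibition, CC50 from viability data.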

RSV A2 virus strain = assay: Cotton rat RSV A2 challenge protection, lung nucleic acid load by RT-qPCR; assay type: in vivo; settings: cotton rats; for Nucleic acid load RT-qPCR detection results Log10 mean (copy number/gram of lung tissue): tracheal nebulization 1 mg/kg QD for 5 days, lung collected 2 h after final administration on Day 4; for effect on viral titer in lung tissue (in words): tracheal nebulization once daily for 5 days
Source text: Female cotton rats were from Shanghai Yishang Biotechnology Co., Ltd. The RSV A2 virus strain was from the ATCC, with a catalog number VR-1540. RT-qPCR primer+probe primer were supplied by Qingke Biotechnology Co., Ltd, with batch number TSP20241227-025-00187. The RT-qPCR standard was provided by Vazyme, with batch number 20241008.
Female cotton rats (6-8 weeks old) were grouped based on body weight (n=5). All animals were intranasally challenged with RSV on Day 0 at a challenge dosage of […] pfu (50 μL) per animal. Administration began 1 h after Day 0 challenge; the polypeptide sample, positive control, and solvent control were administered via tracheal nebulization once daily for 5 consecutive days. Lung tissue was collected from all animals 2 h after the final administration on Day 4. Left lung tissue (including partial trachea) was rapidly frozen in a virus protection solution with a 10-fold volume and stored below −70° C.; and the viral titer was detected with RT-qPCR.
First, sample homogenization and lung tissue RNA extraction were performed, and the supernatant was taken from the tissue sample that was homogenized using a tissue homogenizer (maintaining a low-temperature environment). The approximately 100 μL of the homogenate supernatant was taken, and total tissue RNA was extracted by using a VeZol reagent-chloroform-water phase-magnetic bead method, and dissolved in RNase-free water. The RT-qPCR reaction system was prepared as follows: a one-step RT-qPCR reaction system was prepared by using an RNA template, a probe, a primer pair, an RT-qPCR buffer, and the RNase-free water; each sample was tested in duplicated wells, with each well containing 20 μL of the one-step RT-qPCR reaction system; a quantitative standard curve well (RSV A2 N gene full-length plasmid), a positive quality control well, and a negative quality control well were arranged at the same time. Then, amplification programs were set according to reverse transcription, pre-denaturation, and cyclic amplification, and amplification data was collected by using a real-time fluorescence quantification PCR instrument, and a mean CT value for duplicated wells was calculated. The CT value from the test results for each sample was substituted into a quantitative standard curve to calculate a copy number. A calculation formula for RSV viral load (copy number/gram of lung tissue) was: sample viral load (copy number/gram of lung tissue)=copy number/relative tissue input (g).
One hour after RSV A2 challenge in cotton rats, compounds 13, 14, 17, 19, 20, 21, 26, 27, 28, and 40 were administered via tracheal nebulization once daily for 5 consecutive days; and 2 h after the final administration, lung tissue was collected from all groups for viral titer detection, and results were shown in Table 4.

Molecule | IC50 (RSV A long virus strain) [nM] | Nucleic acid load RT-qPCR detection results Log10 mean (copy number/gram of lung tissue) (RSV A2 virus strain) | effect on viral titer in lung tissue (in words) (RSV A2 virus strain)
CC[C@H](C)[C@H](NC(=O)[C@H](CCCCN)NC(=O)[C@H](CCCCN)NC(=O)[C@H](CC(C)C)NC(=O)[C@H](CO)NC(=O)[C@H](CCC(=O)O)NC(=O)[C@H](CCC(=O)O)NC(=O)[C@@H](NC(=O)[C@H](CCCCN)NC(=O)[C@H](CCCCN)NC(=O)[C@H](CC(N)=O)NC(=O)[C@@H](NC(=O)[C@H](CCC(=O)O)NC(=O)[C@H](CCC(=O)O)NC(=O)[C@@H](NC(=O)[C@H](CCCCN)NC(=O)[C@H](CCCCN)NC(=O)[C@H](CC(=O)O)NC(=O)[C@H](Cc1ccccc1)NC(=O)[C@H](CCC(=O)O)NC(=O)[C@H](CC(=O)O)NC(=O)[C@H](Cc1c[nH]c2ccccc12)NC(C)=O)[C@@H](C)CC)C(C)C)[C@@H](C)CC)C(=O)N[C@@H](CCC(=O)O)C(=O)N[C@@H](CCC(=O)O)C(=O)N[C@@H](CO)C(=O)N[C@@H](CC(=O)O)C(=O)N[C@@H](CCCCN)C(=O)N[C@@H](CCCCN)C(=O)N[C@@H](CC(C)C)C(=O)N[C@@H](CCC(=O)O)C(=O)N[C@@H](CCC(=O)O)C(=O)N[C@H](C(=O)N[C@@H](CC(N)=O)C(=O)N[C@@H](C)C(=O)N[C@@H](CCC(=O)O)C(=O)N[C@@H](C)C(=O)N[C@@H](C)C(=O)N[C@@H](C)C(=O)N[C@@H](CCCCN)C(=O)N[C@@H](CCCCNC(=O)CCC(=O)O[C@H]1CC[C@@]2(C)C(=CC[C@H]3[C@@H]4CC[C@H]([C@H](C)CCCC(C)C)[C@@]4(C)CC[C@@H]32)C1)C(N)=O)C(C)C [Compound 40] (Ac-WDEFDKKIEEVNKKIEESLKKIEESDKKLEEVNAEAAAKK(Succinyl(4-O-cholesteryl))-NH2) | 11.7 | 7.71 Log10 copy number/gram of lung | significantly reduce the viral titer in lung tissue
CC[C@H](C)[C@H](NC(=O)[C@H](CCCCN)NC(=O)[C@H](CCCCN)NC(=O)[C@H](CC(C)C)NC(=O)[C@H](CO)NC(=O)[C@H](CCC(=O)O)NC(=O)[C@H](CCC(=O)O)NC(=O)[C@@H](NC(=O)[C@H](CCCCN)NC(=O)[C@H](CCCCN)NC(=O)[C@H](CC(N)=O)NC(=O)[C@@H](NC(=O)[C@H](CCC(=O)O)NC(=O)[C@H](CCC(=O)O)NC(=O)[C@@H](NC(=O)[C@H](CCCCN)NC(=O)[C@H](CCCCN)NC(=O)[C@H](CC(=O)O)NC(=O)[C@H](Cc1ccccc1)NC(=O)[C@H](CCC(=O)O)NC(=O)[C@H](CC(=O)O)NC(=O)[C@H](CO)NC(C)=O)[C@@H](C)CC)C(C)C)[C@@H](C)CC)C(=O)N[C@@H](CCC(=O)O)C(=O)N[C@@H](CCC(=O)O)C(=O)N[C@@H](CO)C(=O)N[C@@H](CC(=O)O)C(=O)N[C@@H](CCCCN)C(=O)N[C@@H](CCCCN)C(=O)N[C@@H](CC(C)C)C(=O)NCC(=O)N[C@@H](CO)C(=O)NCC(=O)N[C@@H](CO)C(=O)NCC(=O)N[C@@H](CCCCNC(=O)CCC(=O)O[C@H]1CC[C@@]2(C)C(=CC[C@H]3[C@@H]4CC[C@H]([C@H](C)CCCC(C)C)[C@@]4(C)CC[C@@H]32)C1)C(N)=O [Compound 20] (Ac-SDEFDKKIEEVNKKIEESLKKIEESDKKLGSGSGK(Succinyl(4-O-cholesteryl))-NH2) | 19.8 | 8.55 Log10 copy number/gram of lung | significantly reduce the viral titer in lung tissue
Ac-WDEFDASISQVNEKINQSLEEIRKSDELLHNVNAGLGSGSGK(Succinyl(4-O-cholesteryl))-NH2 [Compound 27] | 25.7 | 8.86 Log10 copy number/gram of lung | significantly reduce the viral titer in lung tissue
Ac-FDEEISQVNEKINQSLAFIRKSDELLHNVNAGKSTTEAAAKK(Succinyl(4-O-cholesteryl))-NH2 [Compound 26] | 12.8 | 7.78 Log10 copy number/gram of lung | significantly reduce the viral titer in lung tissue
CC[C@H](C)[C@H](NC(=O)[C@H](CCCCN)NC(=O)[C@H](CCCCN)NC(=O)[C@H](CC(C)C)NC(=O)[C@H](CO)NC(=O)[C@H](CCC(=O)O)NC(=O)[C@H](CCC(=O)O)NC(=O)[C@@H](NC(=O)[C@H](CCCCN)NC(=O)[C@H](CCCCN)NC(=O)[C@H](CC(N)=O)NC(=O)[C@@H](NC(=O)[C@H](CCC(=O)O)NC(=O)[C@H](CCC(=O)O)NC(=O)[C@@H](NC(=O)[C@H](CCCCN)NC(=O)[C@H](CCCCN)NC(=O)[C@H](CC(=O)O)NC(=O)[C@H](Cc1ccccc1)NC(=O)[C@H](CCC(=O)O)NC(=O)[C@H](CC(=O)O)NC(=O)[C@H](Cc1c[nH]c2ccccc12)NC(C)=O)[C@@H](C)CC)C(C)C)[C@@H](C)CC)C(=O)N[C@@H](CCC(=O)O)C(=O)N[C@@H](CCC(=O)O)C(=O)N[C@@H](CO)C(=O)N[C@@H](CC(=O)O)C(=O)N[C@@H](CCCCN)C(=O)N[C@@H](CCCCN)C(=O)N[C@@H](CC(C)C)C(=O)N[C@@H](CCC(=O)O)C(=O)N[C@@H](C)C(=O)N[C@@H](C)C(=O)N[C@@H](C)C(=O)N[C@@H](CCCCN)C(=O)N[C@@H](CCCCNC(=O)CCC(=O)O[C@H]1CC[C@@]2(C)C(=CC[C@H]3[C@@H]4CC[C@H]([C@H](C)CCCC(C)C)[C@@]4(C)CC[C@@H]32)C1)C(N)=O [Compound 13] (Ac-WDEFDKKIEEVNKKIEESLKKIEESDKKLEAAAKK(Succinyl(4-O-cholesteryl))-NH2) | 13 | 7.82 Log10 copy number/gram of lung | significantly reduce the viral titer in lung tissue
CC[C@H](C)[C@H](NC(=O)[C@H](CO)NC(=O)[C@H](C)NC(=O)[C@H](CC(=O)O)NC(=O)[C@H](Cc1ccccc1)NC(=O)[C@H](CCC(=O)O)NC(=O)[C@H](CC(=O)O)NC(C)=O)C(=O)N[C@@H](CO)C(=O)N[C@@H](CCC(N)=O)C(=O)N[C@H](C(=O)N[C@@H](CC(N)=O)C(=O)N[C@@H](CCC(=O)O)C(=O)N[C@@H](CCCCN)C(=O)N[C@H](C(=O)N[C@@H](CC(N)=O)C(=O)N[C@@H](CCC(N)=O)C(=O)N[C@@H](CO)C(=O)N[C@@H](CC(C)C)C(=O)N[C@@H](CCC(=O)O)C(=O)N[C@@H](CCC(=O)O)C(=O)N[C@H](C(=O)N[C@@H](CCCNC(=N)N)C(=O)N[C@@H](CCCCN)C(=O)N[C@@H](CO)C(=O)N[C@@H](CC(=O)O)C(=O)N[C@@H](CCC(=O)O)C(=O)N[C@@H](CC(C)C)C(=O)N[C@@H](CC(C)C)C(=O)N[C@@H](Cc1c[nH]cn1)C(=O)N[C@@H](CC(N)=O)C(=O)N[C@@H](CCC(=O)O)C(=O)N[C@@H](C)C(=O)N[C@@H](C)C(=O)N[C@@H](C)C(=O)N[C@@H](CCCCN)C(=O)N[C@@H](CCCCNC(=O)CCC(=O)O[C@H]1CC[C@@]2(C)C(=CC[C@H]3[C@@H]4CC[C@H]([C@H](C)CCCC(C)C)[C@@]4(C)CC[C@@H]32)C1)C(N)=O)[C@@H](C)CC)[C@@H](C)CC)C(C)C [Compound 28] (Ac-DEFDASISQVNEKINQSLEEIRKSDELLHNEAAAKK(Succinyl(4-O-cholesteryl))-NH2) | 12.4 | 7.76 Log10 copy number/gram of lung | significantly reduce the viral titer in lung tissue

Source: patent US20260250325A1, “Antiviral Polypeptide Membrane Fusion Inhibitor, and Preparation Method and Application Thereof” (priority 2025, published 2026)
